One experiment has as its system various E. coli strains. As to the kind of experiment: Antibacterial activity against a panel of E. coli strains. The format is cell-based, Escherichia coli. Conditions: 6 strains of E. coli (K-12, B, H9049, 25922, UTI89, CFT073). The procedure:
(§1) Overnight cultures of the bacterial strains were prepared by inoculating 5 mL of LB with the bacterial freezer stocks and the cultures were incubated at 37° C. in a tabletop incubator shaker set at 150 rpm. The overnight culture grew to saturation and was diluted 1:100 into 5 mL of fresh LB medium containing DP (200 μM) and incubated at 37° C. with shaking at 150 rpm until OD600 reached 0.6. The cultures were subsequently diluted to an OD600 value of 0.001 in 50% MHB medium (11.5 g/L) with or without DP (200 μM). No antibiotic marker was included in these cultures. A 90-μL aliquot of the diluted culture was combined with a 10-μL aliquot of a 10× solution of the tested compounds in a 96-well plate, which was wrapped in […] and incubated at 30° C. with shaking at 150 rpm for 19 h. Bacterial growth was determined by measuring OD600 using a BIOTEK SYNERGY HT plate reader. Each well condition was prepared in duplicate, and at least three independent replicates were conducted on different days. The resulting mean OD600 are reported and the error bars are the standard deviation.
Ampicillin and amoxicillin are β-lactam antibiotics that have periplasmic targets in Gram-negative bacteria and inhibit cell wall biosynthesis. The antibacterial activity of Ent-ampicillin and Ent-amoxicillin conjugates 44 and 45 was evaluated in vitro against a panel of Gram-negative and positive-bacteria.
Select Ent-β-lactam conjugates (Ent-Amp and Ent-Amx) and their glucosylated derivatives (MGE-Amp, MGE-Amx, DGE-Amp, and DGE-Amx) were tested against 6 strains of E. coli. Four of them are non-pathogenic strains, namely K-12, B, H9049, and 25922, and the other two are uropathogenic clinical isolates, namely UTI89 and CFT073.

The test system of the next experiment is E. coli K-12. Put plainly: Antimicrobial activity assay, E. coli K-12. The experiment is classed as cell-based, Escherichia coli. Particulars: inhibition attributed to iron deprivation. As to the method: as §1
In an exemplary experiment, antibacterial activities of the conjugates were tested against E. coli K-12 in 50% MHB at 30° C., t=19 h. 2,2′-dipyridyl (DP, 200 μM) was added to provide conditions of iron limitation.

The subject of experiment [1] is E. coli CFT073. As to the kind of experiment: Antimicrobial activity assay, E. coli CFT073. Particulars: Fe(III)-loaded versus apo conjugates, 50% MHB, 200 μM DP, 30° C., t=19 h. The experiment is classed as cell-based, Escherichia coli. The procedure: as §1
In another exemplary experiment, antibacterial activities of the conjugates were tested against E. coli CFT073 in 50% MHB at 30° C., t=19 h. DP (200 μM) was added to provide conditions of iron limitation.
In another exemplary experiment, antibacterial activities of Fe(III)-loaded or apo Ent-β-lactam conjugates (Ent-Amp and Ent-Amx) and their glucosylated derivatives (MGE-Amp, MGE-Amx, DGE-Amp, and DGE-Amx) against the uropathogenic strain E. coli CFT073 were tested in 50% MHB, 30° C., t=19 h. 2,2′-dipyridyl (DP, 200 μM) was added to provide conditions of iron limitation.

In experiment [2] the test system is Salmonella enterica serovar Typhimurium (STM) IR715. Put plainly: Antibacterial activity assay, Salmonella Typhimurium. The experiment is classed as cell-based. Conditions: 50% MHB, 100 μM 2,2′-dipyridyl, 30° C., t=19 h. As to the method:
FIGS. 12A and 12B show exemplary antibacterial activities of Ent-Amp, Ent-Amx, MGE-Amp, MGE-Amx, DGE-Amp, and DGE-Amx against Salmonella enterica serovar Typhimurium (STM) IR715 (50% MHB with 100 μM 2,2′-dipyridyl to provide conditions of iron limitation, 30° C., t=19 h). (FIG. 12A) Antibacterial activity of Amp and the Amp-containing conjugates (Ent-Amp, MGE-Amp, and DGE-Amp). […] (FIG. 12B) Antibacterial activity of Amx and the Amx-containing conjugates (Ent-Amx, MGE-Amx, and DGE-Amx).

Experiment [3] concerns E. coli CFT073. Put plainly: Antimicrobial activity assay in the presence of lipocalin 2. The experiment is classed as cell-based, Escherichia coli. Conditions: conjugate 100 nM, lcn2 1 μM, M9 minimal media, 37° C., 24 h. The procedure: The bacterial cultures were grown in modified M9 minimal medium (Blango, M. G.; Ott, E. M.; Erman, A.; Veranic, P.; Mulvey, M. A. Forced Resurgence and Targeting of Intracellular Uropathogenic Escherichia coli Reservoirs. PLoS One 2014, 9, e93327-e93335) (Na2HPO4 6.8 g/L, KH2PO4 3 g/L, NaCl 0.5 g/L, NH4Cl 1 g/L, 0.4% glucose, 2 mM MgSO4, 0.1 mM CaCl2, 0.2% casein amino acids, and 16.5 μg/mL of thiamine) overnight. […] The cultures were serially diluted to an OD600 value of 0.00001 in fresh modified M9 minimal medium. Lipocalin 2 (Lcn2) was diluted into PBS buffer to a concentration of 20 μM upon arrival and frozen at −20° C. until use. Bovine serum albumin (BSA, Sigma-Aldrich) was prepared in PBS buffer to achieve a concentration of 20 μM. […] The bacterial growth was determined by measuring OD600 using the plate reader. […] The resulting mean OD600 was reported, and the error bars were the standard deviation. […] In contrast, Lcn2 had no effect of the antibacterial activity of MGE-Amp, MGE-Amx, DGE-Amp, or DGE-Amx.

The next experiment relates to E. coli UTI89. Put plainly: Competition assay with native siderophores, E. coli UTI89. The format is cell-based, Escherichia coli. Particulars: conjugate 100 nM, varied Ent, MGE or DGE, 50% MHB, 200 μM DP, 30° C., t=19 h. As to the method: Ent was synthesized following a literature procedure^55 and stored as DMSO stock solution at −20° C. MGE and DGE were prepared from Ent using MceC and IroB as described for MGE-PEG3-N3 and DGE-PEG3-N3.
In an exemplary experiment, select conjugates (Ent-Amp, MGE-Amp, and DGE-Amp) with select native siderophores (Ent, MGE, and DGE) were tested against the uropathogenic strain E. coli UTI89 in 50% MHB, t=19 h, 30° C. […] The concentration of the conjugates was fixed at 100 nM, and the concentration of the native siderophores was varied. […] These observations indicate that Ent, MGE, Ent-Amp, and MGE-Amp may enter via both FepA and IroN with different efficiency, but DGE and DGE-Amp may only enter via IroN.
In another exemplary experiment, select conjugates (Ent-Amp, MGE-Amp, and DGE-Amp) with select native siderophores (Ent, MGE, and DGE) were tested against the uropathogenic strain E. coli UTI89 in 50% MHB, t=19 h, 30° C. […] The concentration of the conjugates was fixed at 100 nM and the concentration of the native siderophores was varied. […] These observations indicate that Ent, MGE, Ent-Amp, and MGE-Amp may enter via both FepA and IroN with different efficiency, but DGE and DGE-Amp may only enter via IroN.

Experiment [4] has as its system E. coli CFT073. Put plainly: Competition assay with native siderophores, E. coli CFT073. The experiment is classed as cell-based, Escherichia coli. Particulars: conjugate 100 nM, varied Ent, MGE or DGE, 50% MHB, 200 μM DP, 30° C., t=19 h. As to the method: These assays were performed following the general procedure described herein except that varying concentrations of Ent, MGE, or DGE, each of which was unmodified, were mixed with Ent-Amp, Ent-Amx, MGE-Amp, MGE-Amx, DGE-Amp, or DGE-Amx. Ent was synthesized following a literature procedure^55 and stored as DMSO stock solution at −20° C. MGE and DGE were prepared from Ent using MceC and IroB as described for MGE-PEG3-N3 and DGE-PEG3-N3.
In another exemplary experiment, select conjugates (Ent-Amp, MGE-Amp, and DGE-Amp) with select native siderophores (Ent, MGE, and DGE) were tested against the uropathogenic strain E. coli CFT073 in 50% MHB, t=19 h, 30° C. 2,2′-dipyridyl (DP, 200 μM) was added to provide conditions of iron limitation. The concentration of the conjugates was fixed at 100 nM and the concentration of the native siderophores was varied.
In another exemplary experiment, select conjugates (Ent-Amx, MGE-Amx, and DGE-Amx) with select native siderophores (Ent, MGE, and DGE) were tested against the uropathogenic strain E. coli CFT073 in 50% MHB, t=19 h, 30° C. DP (200 μM) was added to provide conditions of iron limitation. The concentration of the conjugates was fixed at 100 nM and the concentration of the native siderophores was varied.

Experiment [5] has as its system uropathogenic E. coli and non-pathogenic E. coli. As to the kind of experiment: Mixed culture assays (summary), uropathogenic and non-pathogenic E. coli. The format is cell-based, Escherichia coli. Particulars: uropathogenic with non-pathogenic E. coli. From the text:
No antibiotic marker was included in these cultures.

This note sets out measurements from patent publication US9902986B2, “Enterobactin conjugates and uses thereof” (Massachusetts Institute of Technology, priority 2013, dated 2018).

Each structure is given as a SMILES string. “Also recorded” adds a separate entry of the source.

On to `CC1(C)SC2C(NC(=O)C(NC(=O)CCCc3cn(CCOCCOCCOCCNC(=O)c4cc(O)c(O)c(C(=O)NC5COC(=O)C(NC(=O)c6cc(C7OC(CO)C(O)C(O)C7O)cc(O)c6O)COC(=O)C(NC(=O)c6cc(C7OC(CO)C(O)C(O)C7O)cc(O)c6O)COC5=O)c4)nn3)c3ccc(O)cc3)C(=O)N2C1C(=O)O` (stereo not shown) [DGE-Amx], for which, in the experiment on various E. coli strains, the “antibacterial activity against uropathogenic compared to non-pathogenic E. coli” value is on record as “greater antibacterial activity against the uropathogenic E. coli compared to non-pathogenic E. coli”. The “concentrations at which E. coli K-12 was inhibited” value in the experiment on E. coli K-12 is on record as “micromolar concentrations”. In addition, in the experiment with E. coli CFT073 [1], the “effect of preloading Fe(III) on antibacterial activity” value is “no effect”. Moreover, the “antibacterial activity relative to the unmodified antibiotic” value in experiment [2] is reported as “enhanced antibacterial activity relative to unmodified Amx”. Besides, the “effect of lipocalin-2 (lcn2) on antibacterial activity” value with E. coli CFT073 [3] is “unaffected; also recorded: no effect; also recorded: not attenuated”. Moreover, the “attenuation of antibacterial activity by native siderophores” value in the experiment with E. coli UTI89 was “attenuated by Ent, MGE, or DGE”; in the experiment with E. coli CFT073 [4], “attenuated by Ent, MGE, or DGE”. For the same compound, the “strain-specific growth inhibition in the mixed culture assays” value in experiment [5] is given as “specifically inhibited the growth of the uropathogenic E. coli”.

For `CC1(C)SC2C(NC(=O)C(NC(=O)CCCc3cn(CCOCCOCCOCCNC(=O)c4cc(O)c(O)c(C(=O)NC5COC(=O)C(NC(=O)c6cc(C7OC(CO)C(O)C(O)C7O)cc(O)c6O)COC(=O)C(NC(=O)c6cccc(O)c6O)COC5=O)c4)nn3)c3ccc(O)cc3)C(=O)N2C1C(=O)O` (stereo not shown) [MGE-Amx], the “antibacterial activity against uropathogenic compared to non-pathogenic E. coli” value in the experiment on various E. coli strains is on record as “greater antibacterial activity against the uropathogenic E. coli compared to non-pathogenic E. coli”. In the experiment on E. coli K-12, the “concentrations at which E. coli K-12 was inhibited” value is on record as “micromolar concentrations”. Also, the “effect of preloading Fe(III) on antibacterial activity” value in the experiment with E. coli CFT073 [1] was “no effect”. The “antibacterial activity relative to the unmodified antibiotic” value in experiment [2] was “enhanced antibacterial activity relative to unmodified Amx”. Also, the “effect of lipocalin-2 (lcn2) on antibacterial activity” value with E. coli CFT073 [3] is on record as “unaffected; also recorded: no effect; also recorded: not attenuated”. Moreover, the “attenuation of antibacterial activity by native siderophores” value in the experiment with E. coli UTI89 was “attenuated by Ent, MGE, or DGE”; in the experiment on E. coli CFT073 [4], “attenuated by Ent, MGE, or DGE”. Besides, the “strain-specific growth inhibition in the mixed culture assays” value in experiment [5] was “specifically inhibited the growth of the uropathogenic E. coli”.
